Test results taken from article PMC10602545, “Retinal Microenvironment‐Protected Rhein‐GFFYE Nanofibers Attenuate Retinal Ischemia‐Reperfusion Injury via Inhibiting Oxidative Stress and Regulating Microglial/Macrophage M1/M2 Polarization” (Advanced Science, 2023).
Peptide text beside a SMILES is read from it. * marks the point of attachment. X1 = O=C1c2cccc(O)c2C(=O)c2c(O)cc(C(=O)*)cc21

Assays:
[1] = test system: R28 cells; experiment: In vitro OGD model, cellular ATP content (CellTiter-Lumi Plus); assay type: cell-based; details: 24 h pretreatment, varying concentrations (Rh-GFFYE 10, 20, 40 µM); n = 3
Protocol: (§1) The retinal precursor cell line R28 was purchased from Kerafast (Boston, MA, USA) and cultured according to the procedures recommended by the supplier. Briefly, the cells were grown and maintained in DMEM complete medium containing 420 mL DMEM, 15 mL sodium bicarbonate (Sigma‐Aldrich, St. Louis, MO, USA), 50 mL calf serum, 5 mL MEM non‐essential amino acids, 5 mL L‐glutamine (GIBCO, Grand Island, NY, USA), and 0.625 mL Gentamicin (80 mg mL^−1; Solarbio Life Sciences Co., Ltd, Beijing, China) at 37 °C in a humidified atmosphere containing 5% CO2. The stock solutions of Rh‐GFFYE and control compounds were diluted to varying concentrations with DMEM complete medium just before cell treatment.
An in vitro OGD model was constructed based on the method detailed by Ryou et al.^[ [56] ^] Briefly, R28 cells were cultured in a glucose‐free medium and subjected to hypoxia (1% O2, 5% CO2) for 24 h. […] The ATP levels were measured using a CellTiter‐Lumi Plus luminescent cell viability assay (Beyotime, Beijing, China). The cell membrane integrity of the R28 cells was evaluated by LDH release assay (Beyotime, Beijing, China).

[2] = test system: bone marrow‐derived macrophages (BMDMs); experiment: LPS-induced cytokine release, ELISA; assay type: cell-based, mouse; details: 20 µM, LPS 100 ng/mL, 24 h
Protocol: The isolation of mouse BMDMs was performed according to the method of Pineda‐Torra et al.^[ [57] ^] Briefly, the femurs and tibias of C57BL/6 mice were carefully separated and transferred into PBS containing 10% penicillin/streptomycin. The BMDMs were flushed out with a syringe and filtered through a 70‐µm strainer. To further purify the BMDMs, lysis buffer was added to remove the red blood cells. The BMDMs were cultured in a DMEM medium containing macrophage colony‐stimulating factor (MCE, Monmouth Junction, NJ, USA).
BMDMs (1 × 10^5 mL^−1 cells in a volume of 1 mL per well in a 24‐well plate) were pretreated with Rh‐GFFYE, rhein, Nap‐GFFYE, and Ac‐GFFYE at a concentration of 20 µM for 1 h prior to the addition of LPS (100 ng mL^−1) for the specified times (6, 24, and 48 h). The supernatants were collected, and the concentrations of IL‐1β and IL‐6 in the culture medium were measured using ELISA kits (Beyotime, Beijing, China) according to the manufacturer's instructions.

[3] = test system: rat model of RIR injury; experiment: Rat RIR injury model, H&E staining of the retina; assay type: in vivo; details: intravitreal 4 µL, 20 µM final in vitreous, 24 h after RIR; 7 days; n = 6
Protocol: (§2) Erythromycin eye ointment was used to prevent bacterial infection.
The changes in retinal morphology caused by RIR injury were visualized by H&E staining. At 7 days after the intravitreal injection of Rh‐GFFYE, the eyeballs were removed and then fixed in 4% paraformaldehyde. The eye tissue was then embedded in paraffin, and 4‐µm‐thick slices were prepared. The H&E staining procedure described previously was followed.^[ [59] ^]

[4] = test system: R28 cells; experiment: Mitochondrial membrane potential, JC-1 staining after OGD; assay type: cell-based; details: 20 µM, 24 h prior to OGD; JC-1, CLSM
Protocol: A mitochondrial membrane potential assay kit with JC‐1 (Beyotime, Beijing, China) was used to monitor the changes in the mitochondrial membrane potential of R28 cells subjected to OGD following the procedure recommended by the supplier. Briefly, R28 cells were seeded in dishes at a density of 1 × 10^5 mL^−1 cells and cultured overnight. The cells were treated with Rh‐GFFYE, rhein, Nap‐GFFYE, or Ac‐GFFYE at a concentration of 20 µM for 24 h prior to OGD. Following treatment and recovery, the cells were washed three times with PBS and then incubated with 20 µM JC‐1 for 20 min at 37 °C. After removing the JC‐1 staining solution, the cells were washed three times with JC‐1 dyeing buffer, and 2 mL DMEM was added for CLSM imaging.

[5] = test system: rat model of RIR injury; experiment: Rat RIR injury model, immunofluorescence of RGC markers (BRN3A, β‐III‐TUBULIN); assay type: in vivo; details: 7 d after intravitreal injection; n = 6
Protocol: as §2
The RIR‐injured rats were euthanized at 7 days after the intravitreal injection of Rh‐GFFYE. Immediately after removal, the eyeball was fixed in 4% paraformaldehyde for 2 h at 4 °C, dehydrated overnight in 30% sucrose solution, embedded in an optimal cutting temperature compound embedding bottom box (17 × 17 × 5 mm), and stored at −80 °C. Slices with thicknesses of 8 µm were created using a frozen slicer at −22 °C. The slices were placed on adhesive slides and dried at room temperature for >30 min before proceeding to the next step. For immunofluorescent staining, the retinal sections were permeabilized with enhanced immunostaining permeabilization buffer (Beyotime, Beijing, China) for 20 min, blocked with blocking buffer (Beyotime, Beijing, China), and incubated overnight at 4 °C with the following primary antibodies: anti‐β‐III‐TUBULIN, anti‐IBA1, anti‐GFAP, anti‐BRN3A (Abcam, UK), anti‐CD86, and anti‐CD206 (Cell Signaling Technology, Danvers, MA, USA). After rinsing three times with PBS, the sections were incubated with secondary antibodies at room temperature for 2 h, rinsed three times with PBS, and counterstained with DAPI. Sealed with a cover glass, the slides were then observed by CLSM.

[6] = pH between 8.0 and 9.4; cited from earlier work
From the text: Herb‐derived natural products are regarded as promising drug resources due to their anti‐inflammatory and antioxidant effects.^[ [11] ^] Rhein (4,5‐dihydroxyanthraquinone‐2‐carboxylic acid), is an anthraquinone and one of the pharmacologically active components extracted from Rheum.^[ [12] ^] […] Due to its good anti‐apoptotic and anti‐inflammatory effects, rhein has also been used to treat ischemia/reperfus ...

[7] = test system: R28 cells; experiment: Intracellular ROS, H2DCF-DA staining after OGD; assay type: cell-based; details: 20 µM, 24 h before OGD, CLSM
Protocol: R28 cells were seeded at a density of 1 × 10^5 mL^−1 cells in 35‐mm glass‐bottom Petri dishes and incubated overnight. Before OGD injury, the cells were treated with Rh‐GFFYE, rhein, Nap‐GFFYE, or Ac‐GFFYE at a concentration of 20 µM for 24 h. The OGD‐injured cells were then assayed for intracellular ROS production by H2DCF‐DA staining. Briefly, the cells were treated with 10 µM H2DCF‐DA for 30 min in the cell culture incubator. To remove the unincorporated dye, the cells were washed with PBS and the oxidation of H2DCF‐DA was detected by CLSM.

[8] = test system: rat model of RIR injury; details: in vivo
Protocol: Prior to establishing the model, each anesthetized rat was administered with 0.3% ofloxacin eye drops. Topyramide eye solution was used to dilate the pupil, and proparacaine hydrochloride was used as an eye anesthetic. A 30‐gauge needle containing a balanced salt solution was cannulated into the anterior chamber. […] The sham operation, which served as the control, was performed without elevating the IOP. After 60 min, the needle was withdrawn, the IOP was normal, the posterior segment was pale, and the blood supply was restored, confirming the successful establishment of the RIR injury model. […] During the experiment, each animal's body temperature was kept between 36.5 and 37°C.
At 24 h after establishing the RIR injury model, the rats were randomly divided into five groups: Sham, Saline, Rh‐GFFYE, Ac‐GFFYE, and Nap‐GFFYE. The methods for anesthesia and pupil dilation were the same as described above. Intravitreal injection was accomplished using a Hamilton syringe, and 4 µL of Rh‐GFFYE was injected to obtain a final rhein concentration of 20 µM in the vitreous humor.^[ [58] ^]
Before ERG recording, all the rats were randomly divided into five groups (Sham, Saline, Nap‐GFFYE, Ac‐GFFYE, and Rh‐GFFYE) and adapted in the dark for 12 h. […] For scotopic ERG, the responses to white flashes of 3.00 cd∙s∙m^−2 were recorded. […]

[9] = In vivo retinal distribution by CLSM (Cy5.5 label); set-up: species or system rat
From the text: To evaluate the distribution of Rh‐GFFYE in RIR‐injured and normal retinas, rats were divided into two groups. At 3, 7, 14, and 21 days after a single intravitreal injection of Cy5.5‐Rh‐GFFYE, the rats were killed and retinas were obtained. Retinal cryosections and retinal whole flat mounts were examined by CLSM to observe the distribution of Rh‐GFFYE in vivo.

[10] = In vivo safety evaluation after intravitreal injection; set-up: species or system rat
From the text: For safety evaluation, rats were intravitreally injected Rh‐GFFYE nanofibers. 7 days after injection, ERG was used to detect the retinal function and H&E staining was used to detect the morphology of retina. Orbital blood was taken to detect the contents of ALT and AST in plasma. The major organs (heart, liver, spleen, lung, kidney) were harvested for H&E staining to observe changes in each major organ.

[11] = test system: R28 cells; experiment: Safety evaluation under normoxic conditions (ATP and LDH); assay type: cell-based; details: 24 h
Protocol: as §1
An in vitro OGD model was constructed based on the method detailed by Ryou et al.^[ [56] ^] Briefly, R28 cells were cultured in a glucose‐free medium and subjected to hypoxia (1% O2, 5% CO2) for 24 h. The cells were then re‐oxygenated (21% O2, 5% CO2) for 6 h to simulate RIR. The ATP levels were measured using a CellTiter‐Lumi Plus luminescent cell viability assay (Beyotime, Beijing, China). The cell membrane integrity of the R28 cells was evaluated by LDH release assay (Beyotime, Beijing, China).

[12] = Concentration of rhein in retinas by UPLC-MS/MS; assay type: in vivo, rat
Protocol: To further evaluate the concentration of rhein in retinas, the retinas were collected at 7 and 21 days after a single intravitreal injection of Rh‐GFFYE. The retinas were homogenized using a cryogenic homogenizer (ServiceBio, Wuhan, China), and the supernatants were collected after centrifugation for further analysis. The samples were suspended in ethyl acetate and centrifuged for 5 min to obtain the supernatants which were then dried under nitrogen gas flow. The residues were dissolved with mobile phase solution and then quantified using the UPLC‐MS/MS (AB Sciex Triple Quad TM 4500 system, MA, USA) assay.

[13] = 7 days after intravitreal injection, n = 6
[14] = day 7 after single intravitreal injection of Rh-GFFYE, retina homogenate

Row | Molecule | recovery of cell viability (ATP content) under OGD [1] | anti‐inflammatory effect (release of IL‐1β and IL‐6) [2] | IPL thickness after RIR injury [3] | mitochondrial membrane potential (ΔΨm) under OGD [4] | number of RGCs (BRN3A positive) compared with Saline group [5] | concentration at which rhein self‐assembles into a translucent hydrogel [6] [µM] | intracellular ROS level under OGD [7] | amplitudes of the oscillatory potentials (OPs) [8] | scotopic ERG a and b wave amplitudes [8] | uptake in ischemic retina compared with control non‐ischemic eyes [9] | morphology of the retina (H&E) ([10]; 7 d after intravitreal injection) | retinal function (ERG) of normal rats ([10]; 7 d after intravitreal injection, vs normal group, n = 6) | serum content of alanine aminotransferase (ALT) [10, 13] | serum content of aspartate aminotransferase (AST) [10, 13] | histological structures of main visceral organs (heart, liver, spleen, lung, kidney) ([10]; H&E, 7 days after intravitreal injection) | toxicity on R28 cells (ATP and LDH levels) [11] | concentration of rhein in retina at 21 d relative to day 7 ([12]; 21 d after single intravitreal injection) | concentration of rhein in the ischemic retina [12, 14] [ng/g] | concentration of rhein in the normal retina [12, 14] [ng/g]
1 | Nap‐GFFYE [control peptide compound in which rhein is replaced with 1‐naphthylacetic acid (Nap)] | no restorative effect | did not show anti‐inflammatory effects | did not ameliorate | no recovery | No significant differences |  |  |  |  |  |  |  |  |  |  |  |  |  | 
2 | O=C(O)c1cc(O)c2c(c1)C(=O)c1cccc(O)c1C2=O [rhein, 4,5‐dihydroxyanthraquinone‐2‐carboxylic acid] | no restorative effect | reduced the release of these two inflammatory cytokines to some extent |  | recovered |  | 14100 | significant ROS inhibition |  |  |  |  |  |  |  |  |  |  |  | 
3 | O=C(O)CC[C@H](NC(=O)[C@H](Cc1ccc(O)cc1)NC(=O)[C@H](Cc1ccccc1)NC(=O)[C@H](Cc1ccccc1)NC(=O)CNC(=O)c1cc(O)c2c(c1)C(=O)c1cccc(O)c1C2=O)C(=O)O [Rh‐GFFYE] (X1-GFFYE-OH) |  |  |  |  |  |  |  | recovered | significant recovery | increased | no significant change | not significantly changed | did not show intergroup differences | did not show intergroup differences | did not induce noticeable histological changes | no toxic effect | approximately one‐quarter of that at day 7 | 27.1 | 15.2
